Measured values from PMC9550238, “Novel TRKB agonists activate TRKB and downstream ERK and AKT signaling to protect Aβ-GFP SH-SY5Y cells against Aβ toxicity” (Aging (Albany NY), 2022).
One block for each molecule: values may come before it.

What was measured:
[1] = DPPH free radical scavenging assay; type: biochemical; conditions: compounds 10–160 μM
Description: (§1) Thioflavin T is widely used to visualize and quantify the presence of misfolded amyloid protein aggregates in vitro [59]. […] In addition, DPPH radical (Sigma-Aldrich) was used to assay the free radical scavenging capacity of kaempferol, LM-031 and analogs (10–160 μM) as stated.

Aβ-GFP SH-SY5Y cells [2] = test: Aβ folding reporter GFP fluorescence; type: cell-based, Human; conditions: for intensity of GFP fluorescence: untreated cells 100%; for EC50: Homo sapiens, 144 h, Aβ-GFP SH-SY5Y cells, compounds 1.2–5 μM, Dox 6 days, read-out: Aβ aggregation inhibition EC50 (GFP fluorescence)
Description: Human neuroblastoma SH-SY5Y-derived Aβ-GFP cells were maintained as stated. The recombinant Aβ-GFP protein has a 12 amino acid-containing linker between the fused Aβ and GFP. Doxycycline (5 μg/ml; Sigma-Aldrich) was used to induce Aβ-GFP expression.
Neuronal differentiation of Aβ-GFP SH-SY5Y cells was induced by retinoic acid (10 μM; Sigma-Aldrich). Cells on 96-well plate (2.5 × 10^4/well) were seeded on day 1, pre-treated with test compounds (1.2–5 μM) plus induced Aβ-GFP expression (5 μg/ml doxycycline) on day 2, and stained with Hoechst 33342 (0.1 μg/ml; Sigma-Aldrich) on day 8 as stated. Cell images were then captured at 482 nm excitation/536 nm emission wavelengths (ImageXpress Micro Confocal high-content system) and analyzed (MetaXpress image acquisition and analysis software) (Molecular Devices, Sunnyvale, CA, USA). In addition, ROS was quantified on day 8 following CellROX Deep Red stain (5 μM; Molecular Probes, Waltham, MA, USA) using the high-content system with excitation/emission wavelengths of 644/665 nm.

Aβ42 peptide = molecular target: T1, Aβ42 peptide (Homo sapiens, UniProt P05067); test: Thioflavin T Aβ aggregation inhibition assay; type: biochemical; conditions: Aβ42, compounds 5–20 μM
T1 construct: assessed by using Aβ42 peptide (AnaSpec, Fremont, CA, USA); purchased AnaSpec
Description: as §1

in vitro = in vitro ADME
Description: The permeability of LMDS-1 and -2 was determined by a PAMPA-BBB assay. Firstly, 300 μl of LMDS-1 or -2 (1 μM) solution were added to the donor well (Millipore). Bupropion (a high permeability marker), piroxicam (a low permeability marker), and lucifer yellow (an integrity marker) (Sigma-Aldrich) were used as quality control (QC) compounds for comparison. The sandwich with aqueous donor on the bottom, artificial lipid membrane (PVDF filter coated with porcine polar brain lipid) in the middle, and aqueous acceptor (5% DMSO in PBS) on the top was assembled as stated. Each compound was tested in triplicate. After incubation for 18 h at the ambient temperature, the PAMPA sandwich plate was separated. The concentrations of test and QC compounds in the donor and acceptor wells were measured as stated, and the effective permeability coefficient (Pe) was computed.

Aβ-GFP SH-SY5Y cells [3] = test: Neurite outgrowth analysis; type: cell-based, Human; conditions: 5 μM; induced untreated 3.0, uninduced 3.9
Description: As stated, Aβ-GFP SH-SY5Y cells were seeded (6 × 10^4/24-well) with retinoic acid addition on day 1, treated with tested compounds (5 μM) plus induced Aβ-GFP expression (5 μg/ml doxycycline) on day 2, and stained with TUBB3 (tubulin beta 3 class III) primary antibody (1:1000; Covance #MMS-435P, Princeton, NJ, USA), goat anti-rabbit Alexa Fluor® 555 secondary antibody (1:1000; Thermo Fisher Scientific #A27039), and DAPI (4′-6-diamidino-2-phenylindole, 0.1 μg/ml; Sigma-Aldrich) on day 8 [60]. Neuronal pictures were taken using the high-content system and analyzed for neurite length (μm), process (number of neurites protruding from neuronal cell body) and branch (number of neurites extending from process) (MetaXpress neurite outgrowth application module; Molecular Devices). In each of three independent experiments, roughly 6000 cells from each sample were examined.

Aβ-GFP SH-SY5Y cells [4] = test: Comparison of BDNF and LMDS compounds on TRKB signaling, immunoblot; type: cell-based, Human; conditions: 100 ng/ml
Description: Total proteins from Aβ-GFP SH-SY5Y cells were prepared, quantified, electrophoretically separated and blotted as stated. Following blocking, the membrane was probed with antibody against BDNF (1:500; Santa Cruz Biotechnology #sc-546, Santa Cruz, CA, USA), BCL2 (1:200; Santa Cruz Biotechnology #sc-7382), BAX (1:200; Santa Cruz Biotechnology #sc-7480), TRKB (1:500; Cell Signaling Technology #4603, Danvers, MA, USA), p-TRKB (Y516) (1:200; GeneTex #GTX32230, Irvine, CA, USA), p-TRKB (Y816) (1:1000; Millipore #ABN1381, Billerica, MA, USA), ERK (1:1000; Cell Signaling Technology #9102), p-ERK (T202/Y204) (1:1000; Cell Signaling Technology #9101), AKT (1:1000; Abcam #ab126811, Cambridge, CB, UK), p-AKT (S473) (1:1000; Cell Signaling Technology #4060), CREB (1:500; Santa Cruz Biotechnology #sc-186), p-CREB (S133) (1:1000; Millipore #06-519), or loading control GAPDH (glyceraldehyde-3-phosphate dehydrogenase) (1:1000; MDBio #30000002, Taipei, Taiwan). The immune complexes were detected as stated.

T1 sequence (P05067 672-713 limits assumed): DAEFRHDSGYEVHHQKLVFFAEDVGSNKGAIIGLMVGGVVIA

Molecule: O=c1c(O)c(-c2ccc(O)cc2)oc2cc(O)cc(O)c12 [Kaempferol, kaempferol, reference compound]
EC50 [1]: 28 µM

Molecule: COc1cc(/C=C/C(=O)CC(=O)/C=C/c2ccc(O)c(OC)c2)ccc1O [Curcumin, curcumin, reference compound]
neurite process (Aβ-GFP SH-SY5Y cells [3]): 3.7–3.8
intensity of GFP fluorescence (Aβ-GFP SH-SY5Y cells [2]; 2.5–5 μM): 113–140%
EC50 (Aβ-GFP SH-SY5Y cells [2]): 6.1 µM

Molecule: O=c1ccc2ccccc2o1 [Coumarin, coumarin, reference compound]
intensity of GFP fluorescence (Aβ-GFP SH-SY5Y cells [2]; 1.2–5 μM): 113–140%
EC50 (Aβ-GFP SH-SY5Y cells [2]): 9.8 µM
EC50 (Aβ42 peptide): 25 µM
EC50 [1]: 179 µM

B1: BDNF: Brain-derived neurotrophic factor, a neurotrophic factor binding TRKB (protein, UniProt P23560 19-247, looked up)
Neurotrophic factor BDNF …: APMKEANIRGQGGLAYPGVRTHGTLESVNGPKAGSRGLTSLADTFEHVIEELLDEDQKVRPNEENNKDADLYTSRVMLSSQVPLEPPLLFLLEEYKNYLDAANMSMRVRRHSDPARRGELSVCDSISEWVTAADKKTAVDMSGGTVTVLEKVPVSKGQLKQYFYETKCNPMGYTKEGCRGIDKRHWNSQCRTTQSYVRALTMDSKKRIGWRFIRIDTSCVCTLTIKRGR
p-CREB (Aβ-GFP SH-SY5Y cells [4]; induced untreated 42%): 85–97%
p-ERK (Aβ-GFP SH-SY5Y cells [4]; induced untreated 64%): 94–111%
p-AKT (Aβ-GFP SH-SY5Y cells [4]; induced untreated 65%): 115–118%

Now from value to molecule, other results behind:

EC50 (Aβ-GFP SH-SY5Y cells [2]): 7.2 µM
EC50 (Aβ42 peptide): < 5 µM
EC50 [1]: 116 µM
recovery at 18 h, 1 µM (in vitro; PAMPA): 12.7%
Molecule: CC(=O)Oc1ccc2cc(C(=O)c3ccccc3)c(=O)oc2c1 [LMDS-4]
intensity of GFP fluorescence (Aβ-GFP SH-SY5Y cells [2]; 1.2–5 μM): 111–149%

EC50 (Aβ-GFP SH-SY5Y cells [2]): 11 µM
EC50 (Aβ42 peptide): 14 µM
EC50 [1]: 167 µM
PAMPA-BBB classification (in vitro): BBB^+ (high)
Papp at 18 h, 1 μM (in vitro; PAMPA): 11.8 ± 4.11 ×10⁻⁶ cm/s
Molecule: COc1ccc2cc(C(=O)c3ccccc3)c(=O)oc2c1 [LMDS-3]
intensity of GFP fluorescence (Aβ-GFP SH-SY5Y cells [2]; 2.5–5 μM): 111–149%
